The subject of data set [1] is reserpine-induced akinesia. As to the kind of experiment: PEA reversal of reserpine-induced akinesia in rats. Format: in vivo, rat.
For data set [2], the system named is PEA induced rotations in unilateral nigral lesioned rats. The data set is described as follows: Rotational behavior in unilateral substantia nigra 6-hydroxydopamine lesioned rats. The class given is in vivo, rat.
Data set [3] relates to PEA induced stereotype behavior. As to the kind of experiment: PEA induced stereotype behavior in rats. The class given is in vivo, rat.
The subject of the next data set is cancer patients. To be noted: cited from earlier work.
In another data set the target is T1, rat brain MAO A (Rattus norvegicus, UniProt P21396).
T1 construct: Human and rat caudate nuclei were homogenized in 0.32M sucrose; from tissue; host or cells: rat caudate nucleus homogenate (1%)
T1 sequence (P21396 1-526): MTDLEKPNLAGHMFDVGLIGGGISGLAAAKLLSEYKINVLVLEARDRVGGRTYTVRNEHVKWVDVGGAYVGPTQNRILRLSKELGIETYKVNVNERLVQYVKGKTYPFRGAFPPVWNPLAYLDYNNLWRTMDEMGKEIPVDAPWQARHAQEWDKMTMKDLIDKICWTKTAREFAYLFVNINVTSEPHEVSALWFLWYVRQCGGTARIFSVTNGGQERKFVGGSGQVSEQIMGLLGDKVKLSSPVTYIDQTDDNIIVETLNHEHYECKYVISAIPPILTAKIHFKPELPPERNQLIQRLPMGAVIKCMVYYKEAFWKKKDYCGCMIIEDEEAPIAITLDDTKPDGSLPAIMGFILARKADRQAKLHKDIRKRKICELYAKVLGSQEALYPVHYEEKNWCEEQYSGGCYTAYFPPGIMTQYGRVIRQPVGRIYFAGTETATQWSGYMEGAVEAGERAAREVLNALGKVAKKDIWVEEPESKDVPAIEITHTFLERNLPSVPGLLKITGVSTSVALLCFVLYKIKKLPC
As to the kind of experiment: MAO A activity in rat brain homogenate (14C-5HT substrate). The following applies: substrate 14C-5HT; SD ±6.0. Format: biochemical.

For the next data set, the target named is T2, human platelet MAO B (Homo sapiens, UniProt P27338).
T2 construct: The platelet pellet was resuspended in 5.0 ml of 0.1 M phosphate buffer with pH 7.4 by sonication; from tissue; host or cells: human blood platelets from normal volunteers, sonicated
T2 sequence (P27338 1-520): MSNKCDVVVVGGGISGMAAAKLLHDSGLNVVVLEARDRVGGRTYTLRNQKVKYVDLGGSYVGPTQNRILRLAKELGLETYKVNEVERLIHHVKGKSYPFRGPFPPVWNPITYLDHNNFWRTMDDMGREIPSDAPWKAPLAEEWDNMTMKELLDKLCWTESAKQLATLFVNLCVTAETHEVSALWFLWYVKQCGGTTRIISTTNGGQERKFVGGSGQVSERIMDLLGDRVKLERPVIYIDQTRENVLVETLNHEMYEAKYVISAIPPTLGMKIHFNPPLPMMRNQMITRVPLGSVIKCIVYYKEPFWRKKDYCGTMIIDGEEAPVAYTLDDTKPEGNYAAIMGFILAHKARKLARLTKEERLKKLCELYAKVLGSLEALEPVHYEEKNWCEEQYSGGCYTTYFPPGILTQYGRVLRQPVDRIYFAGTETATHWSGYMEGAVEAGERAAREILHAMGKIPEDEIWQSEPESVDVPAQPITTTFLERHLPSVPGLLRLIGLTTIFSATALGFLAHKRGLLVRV
As to the kind of experiment: Inhibition of platelet MAO B activity in vitro (human platelets). Format: biochemical.

The target in another data set is T3, rat brain MAO B (Rattus norvegicus, UniProt P19643).
T3 construct: Human and rat caudate nuclei were homogenized in 0.32M sucrose; from tissue; host or cells: rat caudate nucleus homogenate (1%)
T3 sequence (P19643 1-520): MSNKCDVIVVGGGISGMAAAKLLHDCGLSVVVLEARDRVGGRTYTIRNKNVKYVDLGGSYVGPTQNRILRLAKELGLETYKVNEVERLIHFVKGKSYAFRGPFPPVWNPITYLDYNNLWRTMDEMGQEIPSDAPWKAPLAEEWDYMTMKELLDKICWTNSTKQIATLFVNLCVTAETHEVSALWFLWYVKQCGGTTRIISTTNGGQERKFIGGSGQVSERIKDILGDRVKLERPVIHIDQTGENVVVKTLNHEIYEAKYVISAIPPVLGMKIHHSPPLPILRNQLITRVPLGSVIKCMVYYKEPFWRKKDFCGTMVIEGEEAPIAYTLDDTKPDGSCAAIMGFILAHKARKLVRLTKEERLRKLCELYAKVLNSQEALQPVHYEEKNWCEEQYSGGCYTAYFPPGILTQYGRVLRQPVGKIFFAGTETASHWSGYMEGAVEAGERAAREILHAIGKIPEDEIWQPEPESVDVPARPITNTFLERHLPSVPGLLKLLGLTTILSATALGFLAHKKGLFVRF
As to the kind of experiment: MAO B activity in rat brain homogenate (14C-PEA substrate). Format: biochemical.

In another data set the target is T4, human brain MAO B (Homo sapiens, UniProt P27338).
T4 construct: Human and rat caudate nuclei were homogenized in 0.32M sucrose; from tissue; host or cells: human caudate nucleus homogenate (1%)
T4 sequence (P27338 1-520): T2 sequence (P27338 1-520)
The data set is described as follows: MAO B activity in human brain homogenate (14C-PEA substrate). The class given is biochemical.

For data set [4], the system named is rat caudate nucleus (H^3-spiroperidol). As to the kind of experiment: Displacement of H^3-spiroperidol from rat caudate nucleus. The class given is binding. The following applies: in vitro.
Another data set addresses T5, human brain MAO A (Homo sapiens, UniProt P21397).
T5 construct: Human and rat caudate nuclei were homogenized in 0.32M sucrose; from tissue; host or cells: human caudate nucleus homogenate (1%)
T5 sequence (P21397 1-527): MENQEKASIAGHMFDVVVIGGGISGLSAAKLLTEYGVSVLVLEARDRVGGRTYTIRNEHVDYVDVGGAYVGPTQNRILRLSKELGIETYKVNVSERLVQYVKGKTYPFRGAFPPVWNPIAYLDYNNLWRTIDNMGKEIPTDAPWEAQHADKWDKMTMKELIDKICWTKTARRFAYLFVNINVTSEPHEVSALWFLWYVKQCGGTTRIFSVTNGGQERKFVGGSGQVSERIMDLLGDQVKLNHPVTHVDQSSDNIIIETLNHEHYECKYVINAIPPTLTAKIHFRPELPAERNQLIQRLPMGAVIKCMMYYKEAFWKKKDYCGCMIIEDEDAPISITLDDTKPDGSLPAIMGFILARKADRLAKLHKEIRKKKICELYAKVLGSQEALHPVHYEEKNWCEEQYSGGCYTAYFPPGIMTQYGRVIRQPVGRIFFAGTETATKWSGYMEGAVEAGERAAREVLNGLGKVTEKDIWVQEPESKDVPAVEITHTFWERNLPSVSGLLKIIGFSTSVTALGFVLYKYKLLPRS
The data set is described as follows: MAO A activity in human brain homogenate (14C-5HT substrate). To be noted: substrate 14C-5HT; SD 15.1. Format: biochemical.

Data set [5] deals with apomorphine and amphetamine induced locomotor changes. As to the kind of experiment: Reversal of apomorphine and amphetamine induced locomotor changes in rats. The class given is in vivo, rat. An excerpt:
Thereafter, an analysis of a PAPD was undertaken in vitro and in vivo beginning with antipsychotic (neuroleptic) and antidepressant activity. […] The two distinct forms of the enzyme have been designated as type A (serotonin metabolizing and clorgyline sensitive) and type […] metabolizing and clorgyline insensitive). Based on the stereochemical model, it was predicted that PAPD's effect on MAO type B would be greater than its effect on MAO type A. In vitro data has substantiated this prediction.

[6] abbreviates: pargyline 50 mg/kg, prior to PEA.
Where [7] appears, read: deprenyl 10 mg/kg, 1 h prior to PEA.
[8] abbreviates: PAPD (200 mg/kg by context), 1 h prior to PEA.
Where [9] appears, read: clorgyline 5 mg/kg, 1 h prior to PEA.

In the case of `C#CCN(C)Cc1ccccc1` [pargyline], in data set [1] (setting [6]), the “duration of activity with increased locomotion” value came to 45 min and the “latency to reversal of akinesia” value is given as “less than five minutes”.
As for `C#CCN(C)C(C)Cc1ccccc1` (centres unmarked) [deprenyl, reference compound], the “duration of PEA rotations” value in data set [2] (setting [7]) was “increased the duration of PEA rotations”. The “number of ipsilateral turns induced by PEA” value in data set [2] (rat, in vivo) was “doubled the number of ipsilateral turns”. For the same molecule, in data set [3] (deprenyl 5 mg/kg, 1 h prior to PEA), the “animals with forepaw padding with continuous sniffing and headweaving” value came out at 50%. In data set [3] (setting [7]), the “animals with forepaw padding with continuous sniffing and headweaving” value stood at 100%. In addition, in data set [3] (deprenyl, 1 h prior to PEA), the “duration of stereotype behavior” value was determined as 60 min and the other stereotype behavior entry is “no other stereotype behavior observed”.
What is called IC50 is the point on the concentration scale where inhibition reaches its midpoint. Low readings indicate higher potency, high ones lower potency. Take `O=C1CCC(NC(=O)Cc2ccccc2)C(=O)N1` (centres unmarked) [PAPD, 3-N-phenylacetylamino-2,6-piperidinedione]: the toxic effects result with cancer patients (human, in vivo) is listed as “lack of toxic effects”. The mood entry in the data set with cancer patients (some cancer patients) was “elevation of mood”. Besides, the need for analgesia result with cancer patients (some cancer patients) was “diminished need for analgesia”. Further, the IC50 at rat brain MAO A amounted to 93.3 µM; against human platelet MAO B (platelets from 6 subjects, duplicate assays, SD 34.5×10^-6) it was 63.8 µM; on rat brain MAO B (substrate 14C-PEA, SD ±2.1), 8 µM; against human brain MAO B (substrate 14C-PEA, PAPD SD 3.7), 19.9 µM; at human brain MAO A it was 139 µM. The “maximal inhibition of platelet MAO B” value at human platelet MAO B (above 1.0 mM) is reported as 100%. In addition, on human platelet MAO B (compared with PAPD / pargyline), the “inhibition of platelet MAO, relative potency” value was “less potent than pargyline”. Moreover, the “inhibition with increasing concentration” value against human platelet MAO B (range of 0.1 to 1.0 mM) is reported as “linear inhibition”. For the same molecule, at human platelet MAO B (standard platelet analysis), the “platelet MAO inhibition” value is “significant degree of MAO inhibition”. Besides, in data set [2] (PAPD 200 mg/kg, 1 h before PEA), the “number and duration of PEA rotations” value is “increased the number and duration of PEA rotations”. The “number or duration of PEA rotations” value in [2] (PAPD 50, 100 and 150 mg/kg, 1 h before PEA) is listed as “did not affect the number or duration of PEA rotations”. Further, the “inhibition of MAO type B versus MAO type A” value at rat brain MAO B (in vitro and in vivo analyses, summary) was “inhibition of MAO type B greater than that for MAO type A”. At rat brain MAO B (rat brain), the “selectivity: concentrations inhibiting MAO B compared with MAO A” value stood at 10 times less. The “effect on duration of PEA's reversal of akinesia” value in data set [1] (PAPD 200 mg/kg, 1 h prior to PEA) is on record as “potentiated the duration of PEA's reversal of akinesia”. Moreover, the “effect on reversal induced by PEA” value in [1] (PAPD 50 and 100 mg/kg, 1 h prior to PEA) is given as “antagonized the reversal induced by PEA”. The “duration of activity with increased locomotion” value in [1] (setting [8]) stood at 50 min. Besides, in data set [1] (setting [8]), the “latency to reversal of akinesia” value was “less than five minutes”. For the same molecule, in [1] (PAPD (200 mg/kg by context), interspersed with locomotor activity), the serotonin behaviors result is “headweaving and tremors”. For the same molecule, the “selectivity for type B MAO” value at human brain MAO B (human brain tissue) is on record as “five times more selective”. Further, in data set [4], the “displacement of H^3-spiroperidol” value is given as “inability to displace H^3 -spiroperidol from rat caudate nucleus”. Besides, in data set [5], the “reversal of apomorphine and amphetamine induced locomotor changes” value was “inability to reverse apomorphine and amphetamine induced locomotor changes in rats”. Further, the “duration of stereotype behavior” value was 30 min in [3] (4 and 24 hours after PAPD (both groups)); 45 to 50 min in data set [3] (PAPD 200 and 400 mg/kg); 45 min in data set [3] (PAPD one hour prior to PEA); 55 min in data set [3] (PAPD two hours prior to PEA). For the same molecule, the “animals displaying forepaw padding/sniffing/headweaving” value is reported as 50% in data set [3] (4 hours after PAPD) and 66% in data set [3] (24 hours after PAPD). Besides, in [3] (PAPD 50 and 100 mg/kg pretreatment), the “effect on PEA behavior” value is recorded as “no effects on PEA behavior were noticed”. The “animals with forepaw padding with continuous sniffing as well as headweaving” value was found to be 100% in data set [3] (PAPD 200 and 400 mg/kg); 100% in [3] (PAPD one and two hours prior to PEA). Further, the other stereotype behavior entry in [3] (PAPD 200 and 400 mg/kg) was “headbobbing”.
As for `C#CCN(C)CCCOc1ccc(Cl)cc1Cl` [clorgyline, reference compound], in data set [1] (setting [9]), the “activity compared with PEA control animals” value is listed as “not as active as PEA control animals”; the duration of behavior worked out at 45 min; the “latency to reversal of akinesia” value was “less than five minutes”; the serotonin type behavior result was “splayed hind legs, myoclonic jerks and headweaving”. Further, in data set [3] (clorgyline 5 mg/kg), the forepaw padding syndrome result was “did not produce this syndrome” and the other stereotype behavior result is listed as “stereotyped headbobbing”. Further, the “animals with forepaw padding, sniffing, headweaving and retropulsion” value in data set [3] (clorgyline 10 mg/kg, 1 h prior to PEA) is 100%. Besides, the “duration of stereotype behavior” value in [3] (clorgyline, both doses (5 and 10 mg/kg)) was determined as 30 min.
Turning to `NNCCc1ccccc1` [phenelzine, reference compound], the “potency relative to PAPD” value on human brain MAO B was “two orders of magnitude more potent than PAPD”.
`NCCc1ccccc1` [PEA, phenylethylamine] gave a duration of rotations in data set [2] (PEA 50 mg/kg alone) of 30 min. Besides, in [2] (rat, in vivo), the ipsilateral turning entry is reported as “induced ipsilateral turning”. For the same molecule, the “duration of activity / reversal of akinesia” value in data set [1] (PEA 50 mg/kg i.p. alone) came out at 30 min. Further, the “latency to reversal of akinesia” value in [1] (PEA 50 mg/kg i.p. alone, reserpine 10 mg/kg i.p.) is on record as “less than five minutes”. Besides, the stereotype behavior entry in data set [3] (PEA 50 mg/kg alone) is given as “no stereotype behavior was observed”.
